Patent US9173920B2, “Methods of treating muscular wasting diseases using NF-KB activation inhibitors” (TheraLogics, Inc., priority 2006, dated 2015)

System: mdx−/− mice
Assay: Diaphragm muscle force measurement after treating mdx−/− mice with peptides comprising NEMO binding domains (Example 3)
Type: in vivo
Conditions: for treated mice in which force output was higher: diaphragm muscle
Procedure: In this Example, three week old male mdx−/− mice were treated with various peptides comprising NEMO binding domains. The diaphragm muscles of the mice were then evaluated to determine the ability of the peptides to treat muscle wasting in the mdx mice.
Three week old mdx−/− mice were treated by intraperitoneal injections with 200 μg of either a wild type peptide (SEQ ID NO 19) comprising a NEMO binding domain or a mutant peptide (SEQ ID NO 20). The mice were injected every three days for a total trial period of 27 days. After 27 days, the mice were sacrificed and the diaphragm muscles were removed.
The diaphragm muscles were placed in a chamber filled with Ringer solution and perfused continuously with an O2/CO2 mixture. The muscles were then attached using a steel hook to a force transducer and subsequently stimulated at varying frequencies. At each frequency, forces were allowed to reach a steady state before the data was recorded.

[1] = three week old male mdx−/− mice, 200 μg intraperitoneal every three days for 27 days, FIG. 5

## mutant peptide: mutant peptide (SEQ ID NO 20) used as comparator to the wild type NEMO binding domain peptide (TALDASALQTE; NBD mutants) [reference compound]
[1]
  treated mice in which force output was higher: one of the three

## wild type peptide: wild type peptide (SEQ ID NO 19) comprising a NEMO binding domain (TALDWSWLQTE; NBD mutants)
injection, summary statement on Example 3
  effect on dystrophic phenotype in affected mice: inhibit the dystrophic phenotype
[1]
  treated mice in which force output was higher: three of the four
Three week old male mdx−/− mice, 200 μg intraperitoneal every three days for 27 days, excised diaphragm in Ringer solution, compared to mutant peptide, FIG. 5
  tetanic contractions (force) of diaphragm muscles at various stimulation frequencies: generally higher tentanic contractions
